Results from PubChem BioAssay AID435023 (Broad Institute, 2010).
pEC50: −log10 of the molar value. Calls of active or inactive are those of the source. How the calls were made is not given here.

Biological target: Protein LANA1 (Human herpesvirus 8 type P (isolate GK18)) (UniProt Q9QR71)
Test: LANA–H2A/H2B histone binding inhibitors, dose response, biochemical, fluorescence polarization, cell-free, retest (AID 435023)
Conditions: LANA peptide-nucleosome binding

Chain of Protein LANA1 (Human herpesvirus 8 type P (isolate GK18)) (Q9QR71 whole entry, looked up): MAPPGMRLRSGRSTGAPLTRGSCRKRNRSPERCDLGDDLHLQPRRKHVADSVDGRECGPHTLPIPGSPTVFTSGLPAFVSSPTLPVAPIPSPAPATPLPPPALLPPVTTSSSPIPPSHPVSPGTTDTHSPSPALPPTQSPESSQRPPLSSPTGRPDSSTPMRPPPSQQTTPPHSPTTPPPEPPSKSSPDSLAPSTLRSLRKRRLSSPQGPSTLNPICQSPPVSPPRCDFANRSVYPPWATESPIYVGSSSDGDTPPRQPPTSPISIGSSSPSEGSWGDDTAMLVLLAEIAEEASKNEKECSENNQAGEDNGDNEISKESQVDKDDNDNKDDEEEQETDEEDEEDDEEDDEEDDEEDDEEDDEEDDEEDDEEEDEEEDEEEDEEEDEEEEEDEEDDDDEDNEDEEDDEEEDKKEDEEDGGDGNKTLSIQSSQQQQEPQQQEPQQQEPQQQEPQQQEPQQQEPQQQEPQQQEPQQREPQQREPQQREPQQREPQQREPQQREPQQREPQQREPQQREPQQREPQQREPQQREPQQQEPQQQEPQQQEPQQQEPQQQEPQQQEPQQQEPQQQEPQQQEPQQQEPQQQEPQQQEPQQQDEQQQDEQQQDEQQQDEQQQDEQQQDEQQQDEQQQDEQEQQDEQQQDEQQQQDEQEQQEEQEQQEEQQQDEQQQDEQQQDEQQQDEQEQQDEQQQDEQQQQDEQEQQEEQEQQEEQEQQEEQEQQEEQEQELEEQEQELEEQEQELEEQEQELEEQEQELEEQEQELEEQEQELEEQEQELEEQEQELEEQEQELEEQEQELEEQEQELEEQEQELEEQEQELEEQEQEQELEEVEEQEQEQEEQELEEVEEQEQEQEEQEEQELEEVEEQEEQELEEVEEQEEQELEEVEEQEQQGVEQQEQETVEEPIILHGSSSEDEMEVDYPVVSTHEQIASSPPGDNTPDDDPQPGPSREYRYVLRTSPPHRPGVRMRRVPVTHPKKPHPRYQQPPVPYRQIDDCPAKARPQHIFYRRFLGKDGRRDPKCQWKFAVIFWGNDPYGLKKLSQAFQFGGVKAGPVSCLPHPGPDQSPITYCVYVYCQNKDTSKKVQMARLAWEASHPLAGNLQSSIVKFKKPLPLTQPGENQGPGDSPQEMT

Compound | EC50 | pEC50
N#Cc1ccccc1/C=N/Nc1nc(-c2ccccc2)c2cc(Cl)ccc2n1 | > 7.5 µM (inactive) | –
Cc1nc2c(C)cccn2c1/C(O)=C1\C(=O)C(=O)N(CCN(C)C)C1c1ccccc1 (configuration not stated) | > 7.5 µM (inactive) | –
O=C(/C=C/Nc1ccccc1)c1ccc(Cl)cc1Cl | > 7.5 µM (inactive) | –
Cc1ccc2oc(=O)c(/C=C(\O)c3ccco3)nc2c1 | > 7.5 µM (inactive) | –
CCc1nnc(NS(=O)(=O)c2ccc(N=CC3=C(O)CC(C)(C)CC3=O)cc2)s1 | > 7.5 µM (inactive) | –
O=c1c(/C=C(\O)c2ccc(F)cc2)nc2ccccc2n1-c1ccccc1 | > 7.5 µM (inactive) | –
CCOc1cccc(C2C(C(=O)c3ccc(C)o3)=C(O)C(=O)N2c2nccs2)c1 (configuration not stated) | > 7.5 µM (inactive) | –
CC1(C)C(C#N)=C(N)OC2=C1C(=O)CCC2 | > 7.5 µM (inactive) | –
O=C(O)C(C/C(=N/O)c1ccc(Br)cc1)P(=O)(c1ccccc1)c1ccccc1 (configuration not stated) | > 7.5 µM (inactive) | –
COc1ccc(NC2=C(Cl)C(=O)N(c3ccccc3)C2=O)c(OC)c1 | > 7.5 µM (inactive) | –
CCOC(=O)C1=C(CSc2nc(-c3ccccc3)ccc2C#N)OC(N)=C(C#N)C1c1ccccc1 (configuration not stated) | > 7.5 µM (inactive) | –
COc1ccc(C2C(C(=O)c3cccs3)=C(O)C(=O)N2c2nncs2)cc1 (configuration not stated) | > 7.5 µM (inactive) | –
COc1ccccc1N1CCN(C2CC(=O)N(c3cccc(Cl)c3)C2=O)CC1 (configuration not stated) | > 7.5 µM (inactive) | –
O=C(O)CC1S/C(=N/N=C/c2ccccn2)NC1=O (configuration not stated) | > 7.5 µM (inactive) | –
CCn1c(O)c(/C=C2\C=NN=C2c2ccccc2)sc1=S | > 7.5 µM (inactive) | –
CC(=O)C1=C(O)C(=O)N(c2ccc(C(=O)O)cc2)C1c1ccc([N+](=O)[O-])cc1 (configuration not stated) | > 7.5 µM (inactive) | –
CC1(C)CC(=O)C(C(C#Cc2ccccc2)C2=C(O)CC(C)(C)CC2=O)=C(O)C1 | > 7.5 µM (inactive) | –
CN(CCOc1ccc(CC2SC(=O)NC2=O)cc1)c1ccccn1 (configuration not stated) | > 7.5 µM (inactive) | –
Cc1cccc(CC2CC(=O)N(c3ccc(C)cc3Br)C2=O)c1 (configuration not stated) | > 7.5 µM (inactive) | –
C/C(=N\N=C1/NC(=O)C(C)S1)c1ccc([N+](=O)[O-])cc1 (configuration not stated) | > 7.5 µM (inactive) | –
O=C(CC1SC(N2CCOCC2)=NC1=O)Nc1ccc(Cl)c(C(F)(F)F)c1 (configuration not stated) | > 7.5 µM (inactive) | –
COc1ccccc1N1C(=O)[C@@H]2C(C(=O)CN3C(=O)c4ccccc4C3=O)=NN[C@@H]2C1=O | > 7.5 µM (inactive) | –
CNC(=O)c1ccc(NC(=O)CC2SC(N3CCCC3)=NC2=O)cc1 (configuration not stated) | > 7.5 µM (inactive) | –
CC1OC(OCC2OC(Oc3c(-c4ccc(O)cc4)oc4cc(O)cc(O)c4c3=O)C(O)C(O)C2O)C(O)C(O)C1O (configuration not stated) | > 7.5 µM (inactive) | –

Compound | EC50 | pEC50
COc1ccc(C(=O)/C=C/Nc2ccc(S(=O)(=O)Nc3cc(OC)nc(OC)n3)cc2)c(OC)c1 | > 7.5 µM (inactive) | –
CCOc1ccc(N2C(=O)C3ON(c4ccccc4)C(c4ccco4)C3C2=O)cc1 (configuration not stated) | > 7.5 µM (inactive) | –
CCC/C=N/O | > 7.5 µM (inactive) | –
COc1ccc(CCn2c(O)c(C=Nc3ccc(F)cc3)c(=O)[nH]c2=O)cc1OC | > 7.5 µM (inactive) | –
CCNc1nc(NCC)nc(N/N=C/c2ccc(N(C)C)cc2)n1 | > 7.5 µM (inactive) | –
CCCCc1ccc(N=N/C(C(=O)Nc2ccc(NC(C)=O)cc2OC)=C(/C)O)cc1 | > 7.5 µM (inactive) | –
CCN(CC)CCCN1C(=O)C(=O)/C(=C(/O)c2ccccc2)C1c1cc(OC)ccc1OC (configuration not stated) | > 7.5 µM (inactive) | –
COc1ccc(C2C(C(=O)c3ccco3)=C(O)C(=O)N2CC2CCCO2)cc1OC (configuration not stated) | > 7.5 µM (inactive) | –
COc1ccc(N/C=C/C(=O)c2cc(OC)c(OC)c(OC)c2)cc1 | > 7.5 µM (inactive) | –
O=C1CC(c2ccc(F)cc2)CC(O)=C1C=NCCN1CCNCC1 (configuration not stated) | > 7.5 µM (inactive) | –
CCOc1cc(C2C3=C(CCCC3=O)Nc3nc(C(=O)OC)nn32)ccc1OC (configuration not stated) | > 7.5 µM (inactive) | –
Cn1[nH]c(-c2ccccc2)c(/C=N/O)c1=O | > 7.5 µM (inactive) | –
CCN(CC)CCN1C(=O)C(O)=C(C(=O)c2ccc(C)o2)C1c1ccccn1 (configuration not stated) | > 7.5 µM (inactive) | –
O=C(CC1SC(N2CCCCC2)=NC1=O)Nc1cccc(C(=O)O)c1 (configuration not stated) | > 7.5 µM (inactive) | –
Oc1c(N=NC(=S)Nc2ccccc2F)c2ccccc2n1Cc1ccc(Cl)cc1 | > 7.5 µM (inactive) | –
Cc1cc(C)nc(SC2CC(=O)N(c3ccc(C)c(C)c3)C2=O)n1 (configuration not stated) | > 7.5 µM (inactive) | –
COc1ccc(N/C=C/C(=O)c2ccc(Cl)cc2)cc1 | > 7.5 µM (inactive) | –
N#CC(C#N)=C/C(C#N)=C(/N)N1CCN(c2ccc(Cl)cc2)CC1 | > 7.5 µM (inactive) | –
NC(=O)Cn1c(O)c(N=NC(=O)CNC(=O)/C=C/c2ccccc2)c2ccccc21 | > 7.5 µM (inactive) | –
COc1cccc(CNC(=O)c2ccc(NC(=O)CC3SC(N4CCCC4)=NC3=O)cc2)c1 (configuration not stated) | > 7.5 µM (inactive) | –
Oc1ccc2nnc3c(Br)cnn3c2c1 | > 7.5 µM (inactive) | –
C/C(=N\Nc1nncc2ccccc12)c1ccc(O)cc1 | > 7.5 µM (inactive) | –
O=C(C1=C(O)C(=O)N(Cc2ccccc2)C1c1cccnc1)c1ccco1 (configuration not stated) | > 7.5 µM (inactive) | –
CN1CC=C2C(C#N)=C(N)C(C#N)(C#N)[C@H](c3ccoc3)[C@H]2C1 | > 7.5 µM (inactive) | –

Compound | EC50 | pEC50
CC(C)n1c(O)c(/C=C2\C=NN=C2c2ccccc2)sc1=S | > 7.5 µM (inactive) | –
Cc1ccc(N2C(=O)[C@@H]3C(C(=O)CN4C(=O)c5ccccc5C4=O)=NN[C@@H]3C2=O)c(C)c1 | > 7.5 µM (inactive) | –
Cc1ccc(NC2=C([N+](=O)[O-])CS(=O)(=O)C2)cc1 | > 7.5 µM (inactive) | –
C=CCOc1ccc(/C(O)=C2/C(=O)C(=O)N(CCCN3CCOCC3)C2c2ccc(OC)cc2)cc1 (configuration not stated) | > 7.5 µM (inactive) | –
CC1C2CC(C(CN(C)C)/C2=N/O)C1(C)C (configuration not stated) | > 7.5 µM (inactive) | –
Brc1ccc(C2=CC(c3ccco3)n3ncnc3N2)cc1 (configuration not stated) | > 7.5 µM (inactive) | –
C/C(=N\Nc1ccc(Cl)c(C(=O)O)c1)c1ccc(N2CCOCC2)cc1 | > 7.5 µM (inactive) | –
O=[N+]([O-])c1cccc(/C=N/Nc2nccnc2Cl)c1 | > 7.5 µM (inactive) | –
Cc1ccc(/C(O)=C/c2nc3cc(C)ccc3oc2=O)cc1 | – | 5.23
O=C(C1=C(O)C(=O)N(CCCN2CCOCC2)C1c1ccccn1)c1cc2ccccc2o1 (configuration not stated) | > 7.5 µM (inactive) | –
CC(=O)c1cccc(OC(=O)C2=CC=CN3CCS(=O)(=O)N=C23)c1 | > 7.5 µM (inactive) | –
COc1ccc(CC2C(=O)N(c3ccccc3)C(=O)N(c3ccccc3)C2=O)c(OC)c1 | > 7.5 µM (inactive) | –
COc1ccccc1C1C(C(=O)c2sc(C)nc2C)=C(O)C(=O)N1CCN1CCOCC1 (configuration not stated) | > 7.5 µM (inactive) | –
CC1(C)C(c2cccs2)=[N+]([O-])C2(CCCCC/C2=N\O)N1O (configuration not stated) | > 7.5 µM (inactive) | –
COC(=O)c1ccccc1NC1CC(=O)N(c2c(C)cccc2C)C1=O (configuration not stated) | > 7.5 µM (inactive) | –
CC1Cc2cc(/C(O)=C3\C(=O)C(=O)N(Cc4cccnc4)C3c3ccccc3F)ccc2O1 (configuration not stated) | > 7.5 µM (inactive) | –
COc1cc(/C=N/O)c(Br)cc1OCC(=O)Nc1ccccc1C | > 7.5 µM (inactive) | –
COc1ccc(C2=CC(c3cc(OC)c(OC)c(OC)c3)NC(=S)N2)cc1 (configuration not stated) | > 7.5 µM (inactive) | –
CC[C@H]1c2[nH]c3ccccc3c2C[C@H]2C(=O)N(c3ccc(F)cc3)C(=O)N21 | > 7.5 µM (inactive) | –
COC(=O)CC1=C(C(=O)OC)C(c2cc(OC)c(OC)cc2OC)C(C#N)=C(N)O1 (configuration not stated) | > 7.5 µM (inactive) | –
C/C(=N/NC(=O)c1ccncc1)c1cc2ccc(O)cc2oc1=O | > 7.5 µM (inactive) | –
O=C1CCCC(O)=C1C=Nc1ccc(O)cc1 | > 7.5 µM (inactive) | –
CC1=NCCc2c1[nH]c1cc(O)ccc21 | – | 5.62
COc1cc([N+](=O)[O-])ccc1N1C(=O)CC(Sc2nccc(C)n2)C1=O (configuration not stated) | > 7.5 µM (inactive) | –
